Test results from patent US20040132830A1, “Triphenylmethane kinesin inhibitors” (priority 2001, published 2004).

Assays:
A549 cells = details: cited from earlier work
[1] = test system: Skov-3 cells (human ovarian cancer); experiment: FACS analysis of cell cycle stage by DNA content (mitotic arrest); type: cell-based; details: treated 24 hours, paclitaxel at 10 nM
Description: FACS analysis to determine cell cycle stage by measuring DNA content was performed as follows. Skov-3 cells (human ovarian cancer) were split 1:10 for plating in 10 cm dishes and grown to subconfluence with RPMI 1640 medium containing 5% fetal bovine serum (FBS). The cells were then treated with either 10 nM paclitaxel, the test compound or 0.25% DMSO (vehicle for compounds) for 24 hours. Cells were then rinsed off the plates with PBS containing 5 mM EDTA, pelleted, washed once in PBS containing 1% FCS, and then fixed overnight in 85% ethanol at 4° C. Before analysis, the cells were pelleted, washed once, and stained in a solution of 10 μg propidium iodide and 250 μg of ribonuclease (RNAse) A per milliliter at 37° C. for half an hour. Flow cytometry analysis was performed on a Becton-Dickinson FACScan, and data from 10,000 cells per sample was analyzed with Modfit software.

Structure (SMILES) | GI50 (A549 cells) [nM] | shift of cell population between cell cycle stages (DNA content) [1]
O=c1[nH]cc(F)c(=O)[nH]1 [5-fluorouracil] | 1000 | –
COc1cccc2c1C(=O)c1c(O)c3c(c(O)c1C2=O)C[C@@](O)(C(=O)CO)C[C@@H]3O[C@H]1C[C@H](N)[C@H](O)[C@H](C)O1 [doxorubicin] | 63 | –
NC(=O)NO [hydroxyurea] | 500000 | –
CC(=O)O[C@H]1C(=O)[C@@]2(C)[C@H]([C@H](OC(=O)c3ccccc3)[C@]3(O)C[C@H](OC(=O)[C@H](O)[C@@H](NC(=O)c4ccccc4)c4ccccc4)C(C)=C1C3(C)C)[C@]1(OC(C)=O)CO[C@@H]1C[C@@H]2O [paclitaxel] | 4 | caused a shift in the population of cells from a G0/G1 cell cycle stage (2 n DNA content) to a G2/M cell cycle stage (4 n DNA content)
